Test results: patent publication US11590129B2, “Combination therapy with an antitumor alkaloid” (PHARMA MAR, S.A., priority 2010, dated 2023)
Like-named read-outs stand apart in the source and are kept apart here.

Legend:
[1] = tested on: MDA-MB-231 human breast adenocarcinoma cell line; assay: cells
Protocol: (§1) a. […] Briefly, cells were harvested and seeded in 96 well microtiter plates at a density of 5,000 cells in 150 μL of culture medium and incubated for 24 hours in drug-free medium before treatment with vehicle alone or test compounds for 72 h.
(§2) The cytotoxic effect was measured by the MTT reduction assay, in which 3-(4,5-Dimethylthiazol-2-yl)-2,5-diphenyltetrazolium bromide, a tetrazole, which is reduced to purple formazan in the mitochondria of living cells, was used. MTT (50 μL of 1 mg/mL stock solution) was added to the wells and incubated for 8 hours at 37° C. until formazan crystals were formed. After gently removing the culture medium, DMSO was added to dissolve the insoluble purple formazan product into a colored solution. […] Results were expressed as percentage of control cell growth.
(§3) b. In a second set of assays, A549 human tumor cells were incubated with PM01183 in combination with each of the agents mentioned above.
(§4) As a visual aid, response values were plotted on a scatter plot with dose ratios given on the x-axis and % response values on the y-axis. […] In cases where response values at the two endpoints were approximately equivalent, points lying above or below this predicted line of additivity could be interpreted as representing antagonistic or synergistic drug interaction, respectively.
(§5) Additional serial dilutions were prepared in serum-free culture medium to achieve a final 4× concentration. Aliquots of 50 μL of each diluted compound were added per well.

[2] = tested on: PC-3 human prostate cancer cell line; assay: cells
Protocol: as §1, §2, §3, §4, §5
PC-3 was the human prostate adenocarcinome cell line selected for this assay.

[3] = tested on: SK-MEL-2 human melanoma cell line; assay: cells
Protocol: as §1, §2, §3, §4, §5
SK-MEL-2 was the human melanoma cell line selected for this assay.

[4] = tested on: PANC-1 human pancreatic carcinoma cell line; assay: cells
Protocol: as §1, §2, §3, §4, §5
PANC-1 was the human pancreatic carcinoma cell line selected for this assay.

[5] = tested on: A549 human lung carcinoma cell line; assay: MTT cytotoxicity assay in A549 cells: IC50 of single agents and combinations with PM01183; format: cell-based; details: Homo sapiens
Protocol: as §5
A549 was the human lung carcinoma cell line selected for this assay.
as §1, §2, §3, §4

[6] = tested on: HGC-27 human gastric carcinoma cell line; assay: cells
Protocol: as §1, §2, §3, §4, §5
HGC-27 was the human gastric carcinoma cell line selected for this assay.

[7] = tested on: A673 human rhabdomyosarcoma cell line; assay: cells; details: Homo sapiens, A673, 72 h
Protocol: as §1, §2, §3, §4, §5
A673 was the human rhabdomyosarcoma cell line selected for this assay.

[8] = tested on: U87-MG human glioblastoma cell line; assay: cells
Protocol: as §1, §2, §3, §4, §5
U87-MG was the human glioblastoma cell line selected for this assay.

[9] = tested on: HT-29 human colon adenocarcinoma cell line; assay: cells
Protocol: as §1, §2, §3, §4, §5
HT-29 was the human colon adenocarcinoma cell line selected for this assay.

[10] = tested on: IGROV-1 human ovarian adenocarcinoma cell line; assay: cells
Protocol: as §1, §2, §3, §4, §5
IGROV-1 was the human ovarian adenocarcinoma cell line selected for this assay.

[11] = tested on: RXF-393 human kidney carcinoma cell line; assay: cells
Protocol: as §1, §2, §3, §4, §5

[12] = tested on: HepG2 human hepatocellular liver carcinoma cell line; assay: MTT cytotoxicity assay in HepG2 cells: IC50 of single agents and combinations with PM01183; format: cell-based
Protocol: as §1, §2, §3, §4, §5
HepG2 was the human hepatocellular liver carcinoma cell line selected for this assay.

HGC-27 tumors = assay: Human gastric tumor xenografts (HGC-27) in athymic nude mice, tumor volume % T/C; format: in vivo
Protocol: Female athymic nude mice (Harlan Laboratories Models, S.L. (Barcelona, Spain) were utilized for all experiments. Animals were housed in individually ventilated cages, up to ten per cage in a 12-hour light-dark cycle at 21-23° C. and 40-60% humidity. The mice were allowed free access to irradiated standard rodent diet and sterilized water. Animals were acclimated for at least 5 days prior to tumor implantation with a tumor cell suspension.
HGC-27 cells were grown at 37° C. with 5% CO2 in Iscove's modified Dulbeco's medium (IDMD).
PM01183 was provided in the form of vials of lyophilized PM01183 cake which was reconstituted with water for infusion to a concentration of 0.2 mg/mL. The PM01183 stock solution was further diluted in 5% glucose solution for injection to the dosing formulation concentrations. Cisplatin and 5-fluorouracil were provided as solutions prepared by diluting the product with 0.9% saline solution for injection to the target final concentration.
Dose level groups were administered either as single agents or in combination.
Comparison of the median tumor volume in the treatment groups (T) to the median tumor volume in the control group (T/C×100%) was used for evaluation of the antitumor efficacy.

[13] = cisplatin 1.5 mg/kg iv days 0,7
[14] = cisplatin 3.0 mg/kg iv days 0,7
[15] = cisplatin 4.5 mg/kg iv days 0,7
[16] = cisplatin 6.0 mg/kg iv days 0,7

SMILES: CO[C@H]1C[C@@H]2CC[C@@H](C)[C@@](O)(O2)C(=O)C(=O)N2CCCC[C@H]2C(=O)O[C@H]([C@H](C)C[C@@H]2CC[C@@H](OC(=O)C(C)(CO)CO)[C@H](OC)C2)CC(=O)[C@H](C)/C=C(\C)[C@@H](O)[C@@H](OC)C(=O)[C@H](C)C[C@H](C)/C=C/C=C/C=C/1C [Temsirolimus, temsirolimus]
- IC50 ([1]; Homo sapiens, MDA-MB-231, 72 h): 12 µM
- IC50 ([2]; Homo sapiens, PC-3, 72 h): 0.5 µM
- IC50 ([3]; Homo sapiens, SK-MEL-2, 72 h): 50 µM
- IC50 ([4]; Homo sapiens, PANC-1, 72 h): 10 µM
- IC50 ([5]; A549, 72 hours drug exposure, MTT, read-out: IC50): 3.29 µM
- IC50 ([6]; Homo sapiens, HGC-27, 72 h): 0.15 µM
- IC50 [7]: 1 µM
- IC50 ([8]; Homo sapiens, U-87 MG, 72 h): 3.5 µM
- IC50 ([9]; Homo sapiens, HT-29, 72 h): 3.5 µM
- IC50 ([10]; Homo sapiens, IGROV-1, 72 h): 0.127 µM

SMILES: CC[C@@]1(O)C(=O)OCc2c1cc1n(c2=O)Cc2cc3c(CN(C)C)c(O)ccc3nc2-1 [Topotecan, topotecan]
- IC50 ([11]; Homo sapiens, RXF 393, 72 h): 0.393 µM
- IC50 ([1]; Homo sapiens, MDA-MB-231, 72 h): 0.166 µM
- IC50 ([2]; Homo sapiens, PC-3, 72 h): 0.633 µM
- IC50 ([3]; Homo sapiens, SK-MEL-2, 72 h): 0.437 µM
- IC50 ([4]; Homo sapiens, PANC-1, 72 h): 4.37 µM
- IC50 ([12]; Homo sapiens, HepG2, 72 h): 1 µM
- IC50 ([5]; A549, 72 h): 0.8 µM
- IC50 ([6]; Homo sapiens, HGC-27, 72 h): 0.808 µM
- IC50 [7]: 0.024 µM
- IC50 ([8]; Homo sapiens, U-87 MG, 72 h): 0.75 µM
- IC50 ([9]; Homo sapiens, HT-29, 72 h): 0.328 µM
- IC50 ([10]; Homo sapiens, IGROV-1, 72 h): 0.3 µM

SMILES: N.N.[Cl][Pt][Cl] [Cisplatin, cisplatin]
- IC50 ([11]; RXF-393, 72 hours drug exposure, MTT): 66.7 µM
- IC50 ([1]; MDA-MB-231, 72 hours drug exposure, MTT): 153 µM
- IC50 ([2]; PC-3, 72 hours drug exposure, MTT): 110 µM
- IC50 ([3]; SK-MEL-2, 72 hours drug exposure, MTT): 160 µM
- IC50 ([4]; PANC-1, 72 hours drug exposure, MTT): 147 µM
- IC50 ([12]; HepG2, 72 hours drug exposure, MTT, read-out: IC50): 50 µM
- IC50 ([6]; HGC-27, 72 hours drug exposure, MTT): 80 µM
- % T/C on day 0 (HGC-27 tumors; [13]): 99.3%
- % T/C on day 3 (HGC-27 tumors; [13]): 78.1%
- % T/C on day 5 (HGC-27 tumors; [13]): 78.8%
- % T/C on day 7 (HGC-27 tumors; [13]): 82.6%
- % T/C on day 10 (HGC-27 tumors; [13]): 83.5%
- % T/C on day 12 (HGC-27 tumors; [13]): 86.6%
- % T/C on day 14 (HGC-27 tumors; [13]): 89.9%
- % T/C on day 0 (HGC-27 tumors; [14]): 99.0%
- % T/C on day 3 (HGC-27 tumors; [14]): 78.6%
- % T/C on day 5 (HGC-27 tumors; [14]): 80.0%
- % T/C on day 7 (HGC-27 tumors; [14]): 78.7%
- % T/C on day 10 (HGC-27 tumors; [14]): 81.3%
- % T/C on day 12 (HGC-27 tumors; [14]): 82.8%
- % T/C on day 14 (HGC-27 tumors; [14]): 85.1%
- % T/C on day 0 (HGC-27 tumors; [15]): 98.5%
- % T/C on day 3 (HGC-27 tumors; [15]): 90.5%
- % T/C on day 5 (HGC-27 tumors; [15]): 94.5%
- % T/C on day 7 (HGC-27 tumors; [15]): 90.2%
- % T/C on day 10 (HGC-27 tumors; [15]): 75.7%
- % T/C on day 12 (HGC-27 tumors; [15]): 73.7%
- % T/C on day 14 (HGC-27 tumors; [15]): 81.1%
- % T/C on day 0 (HGC-27 tumors; [16]): 97.7%
- % T/C on day 3 (HGC-27 tumors; [16]): 76.1%
- % T/C on day 5 (HGC-27 tumors; [16]): 79.0%
- % T/C on day 7 (HGC-27 tumors; [16]): 75.1%
- % T/C on day 10 (HGC-27 tumors; [16]): 64.4%
- % T/C on day 12 (HGC-27 tumors; [16]): 61.3%
- % T/C on day 14 (HGC-27 tumors; [16]): 72.7%
- IC50 ([8]; U87-MG, 72 hours drug exposure, MTT): 44 µM
- IC50 ([9]; HT-29, 72 hours drug exposure, MTT): 220 µM
- IC50 ([10]; IGROV-1, 72 hours drug exposure, MTT): 70 µM
